Target: KRas G12D (Homo sapiens (Human), UniProt P01116, G12D)
Assay: KRas G12D Binding Assay (TR-FRET displacement of Cy5 labelled tracer)
Conditions: GDP-loaded KRAS G12D (amino acids 1:169), 60 minute incubation at 22° C.
Experimental: After a 60 minute incubation at 22° C., the reaction was measured using a PerkinElmer EnVision multimode plate reader via TR-FRET dual wavelength detection, and the percent of control (POC) calculated using a ratiometric emission factor. […] The POC values were fit to a 4-parameter logistic curve and the IC50 value was determined as the concentration where the curve crosses 50 POC.
ND stands for “not determined.”

Sequence of KRas G12D (P01116 other isoform, or with tags, fused parts or gaps G12D): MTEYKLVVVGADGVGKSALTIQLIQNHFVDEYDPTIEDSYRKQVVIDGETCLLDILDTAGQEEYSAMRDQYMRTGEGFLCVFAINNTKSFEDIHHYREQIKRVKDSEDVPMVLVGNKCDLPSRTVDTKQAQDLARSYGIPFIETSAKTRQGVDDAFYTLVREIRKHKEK

| Compound | IC50 |
| --- | --- |
| CN1C[C@H](NC(=O)c2ccc(C=O)cc2)C[C@H]1COc1nc(N2C[C@H]3CC[C@@H](C2)N3)c2cnc(-c3cccc4cccc(Cl)c34)c(F)c2n1 [Example 353, N-((3R,5S)-5-(((4-((1R,5S)-3,8-diazabicyclo[3.2.1]octan-3-yl)-7-(8-chloronaphthalen-1-yl)-8-fluoropyrido[4,3-d]pyrimidin-2-yl)oxy)methyl)-1-methylpyrrolidin-3-yl)-4-formylbenzamide] | 333 nM |
| O=C1CCC2(COc3nc(N4C[C@H]5CC[C@@H](C4)N5)c4cnc(-c5cccc6cccc(Cl)c56)c(F)c4n3)CCCN12 (stereo partly drawn) [Example 83, 7a-(((4-((1R,5S)-3,8-diazabicyclo[3.2.1]octan-3-yl)-7-(8-chloronaphthalen-1-yl)-8-fluoropyrido[4,3-d]pyrimidin-2-yl)oxy)methyl)hexahydro-3H-pyrrolizin-3-one bis(2,2,2-trifluoroacetate)] | 8690 nM |
| CO[C@H]1CN2CCC[C@]2(COc2nc(N3CC4CCC(C3)N4)c3cnc(-c4cc(O)cc5cccc(F)c45)c(F)c3n2)C1 (stereo in doubt) [Example 406, 4-(4-((1R,5S)-3,8-diazabicyclo[3.2.1]octan-3-yl)-8-fluoro-2-((2-methoxytetrahydro-1H-pyrrolizin-7a(5H)-yl)methoxy)pyrido[4,3-d]pyrimidin-7-yl)-5-fluoronaphthalen-2-ol] | 0.9 nM |
| Cc1c(Cl)cccc1-c1ncc2c(N3C[C@H]4CC[C@@H](C3)N4)nc(OCC34CCCN3CCC4)nc2c1F [Example 274, 4-((1R,5S)-3,8-diazabicyclo[3.2.1]octan-3-yl)-7-(3-chloro-2-methylphenyl)-8-fluoro-2-((hexahydro-1H-pyrrolizin-7a-yl)methoxy)pyrido[4,3-d]pyrimidine] | 35.9 nM |
| Fc1c(-c2cccc3cccc(Cl)c23)ncc2c(N3CC4CCC(C3)N4)nc(OC[C@@H]3CC(F)(F)CN3)nc12 [Example 352, 4-((1R,5S)-3,8-diazabicyclo[3.2.1]octan-3-yl)-7-(8-chloronaphthalen-1-yl)-2-(((S)-4,4-difluoropyrrolidin-2-yl)methoxy)-8-fluoropyrido[4,3-d]pyrimidine bis(2,2,2-trifluoroacetate)] | 845 nM |
| Fc1ccc2cccc(-c3ncc4c(N5CC6CCC(C5)N6)nc(OC[C@@]56CCCN5C[C@H](F)C6)nc4c3F)c2c1Cl (racemic) [Example 336, 4-((1R,5S)-3,8-diazabicyclo[3.2.1]octan-3-yl)-7-(8-chloro-7-fluoronaphthalen-1-yl)-8-fluoro-2-((2-fluorotetrahydro-1H-pyrrolizin-7a(5H)-yl)methoxy)pyrido[4,3-d]pyrimidine (racemic, trans)] | 3.1 nM |
| Nc1nc2c(-c3ncc4c(N5C[C@H]6CC[C@@H](C5)N6)nc(OCC56CCCN5CCC6)nc4c3F)ccc(F)c2s1 [Example 455, 4-(4-((1R,5S)-3,8-diazabicyclo[3.2.1]octan-3-yl)-8-fluoro-2-((hexahydro-1H-pyrrolizin-7a-yl)methoxy)pyrido[4,3-d]pyrimidin-7-yl)-7-fluorobenzo[d]thiazol-2-amine] | 17 nM |
| CC(C)(O)c1ccccc1-c1ncc2c(N3CC4CCC(C3)N4)nc(OC[C@@]34CCCN3C[C@H](F)C4)nc2c1F (stereo in doubt) [Example 402, 2-(2-(4-((1R,5S)-3,8-diazabicyclo[3.2.1]octan-3-yl)-8-fluoro-2-((2-fluorotetrahydro-1H-pyrrolizin-7a(5H)-yl)methoxy)pyrido[4,3-d]pyrimidin-7-yl)phenyl)propan-2-ol] | 8020 nM |
| C#Cc1cccc2cncc(-c3ncc4c(N5C[C@H]6CC[C@@H](C5)N6)nc(OC[C@]56CCCN5C[C@@H](F)C6)nc4c3F)c12 [Example 204, 4-((1R,5S)-3,8-diazabicyclo[3.2.1]octan-3-yl)-7-(5-ethynylisoquinolin-4-yl)-8-fluoro-2-(((2S,7aR)-2-fluorotetrahydro-1H-pyrrolizin-7a(5H)-yl)methoxy)pyrido[4,3-d]pyrimidine] | 4.4 nM |
| C#Cc1cccc2cc(O)cc(-c3ncc4c(N5C[C@H]6CC[C@@H](C5)N6)nc(OCC56CCCN5CCC6)nc4c3F)c12 [Example 185, 4-(4-((1R,5S)-3,8-diazabicyclo[3.2.1]octan-3-yl)-8-fluoro-2-((hexahydro-1H-pyrrolizin-7a-yl)methoxy)pyrido[4,3-d]pyrimidin-7-yl)-5-ethynylnaphthalen-2-ol] | 0.3 nM |
| FCCc1cccc2cccc(-c3ncc4c(N5C[C@H]6CC[C@@H](C5)N6)nc(OCC56CCCN5CCC6)nc4c3F)c12 [Example 248, 4-((1R,5S)-3,8-diazabicyclo[3.2.1]octan-3-yl)-8-fluoro-7-(8-(2-fluoroethyl)naphthalen-1-yl)-2-((tetrahydro-1H-pyrrolizin-7a(5H)-yl)methoxy)pyrido[4,3-d]pyrimidine] | 3.2 nM |
| C#Cc1cccc2cc(OC)cc(-c3ncc4c(N5C[C@H]6CC[C@@H](C5)N6)nc(OCC56CCCN5CCC6)nc4c3F)c12 [Example 231, 4-((1R,5S)-3,8-diazabicyclo[3.2.1]octan-3-yl)-7-(8-ethynyl-3-methoxynaphthalen-1-yl)-8-fluoro-2-((hexahydro-1H-pyrrolizin-7a-yl)methoxy)pyrido[4,3-d]pyrimidine] | 19.8 nM |
| Fc1c(-c2cccc3cccc(F)c23)ncc2c(N3C[C@H]4CC[C@@H](C3)N4)nc(OCC34CCCN3CCC4)nc12 [Example 234, 4-((1R,5S)-3,8-diazabicyclo[3.2.1]octan-3-yl)-8-fluoro-7-(8-fluoronaphthalen-1-yl)-2-((tetrahydro-1H-pyrrolizin-7a(5H)-yl)methoxy)pyrido[4,3-d]pyrimidine] | 5.9 nM |
| O=C(OC[C@H]1CC[C@@]2(COc3nc(N4CC5CCC(C4)N5)c4cnc(-c5cccc6cccc(Cl)c56)c(F)c4n3)CCCN12)N1CCCCC1 [Example 444, ((3R,7aR)-7a-(((4-(3,8-diazabicyclo[3.2.1]octan-3-yl)-7-(8-chloronaphthalen-1-yl)-8-fluoropyrido[4,3-d]pyrimidin-2-yl)oxy)methyl)hexahydro-1H-pyrrolizin-3-yl)methyl piperidine-1-carboxylate] | 5.5 nM |
| Cn1cnc2ccc(Oc3nc(N4C[C@H]5CC[C@@H](C4)N5)c4cnc(-c5cccc6cccc(Cl)c56)c(F)c4n3)cc21 [Example 148, 4-((1R,5S)-3,8-diazabicyclo[3.2.1]octan-3-yl)-7-(8-chloronaphthalen-1-yl)-8-fluoro-2-((1-methyl-1H-benzo[d]imidazol-6-yl)oxy)pyrido[4,3-d]pyrimidine] | 5180 nM |
| [2H]C1([2H])CC[C@@]2(C([2H])([2H])Oc3nc(N4C[C@H]5CC[C@@H](C4)N5)c4cnc(-c5cc(O)cc6cccc(CC)c56)c(F)c4n3)C[C@@H](F)CN12 [Example 480, 4-(4-((1R,5S)-3,8-diazabicyclo[3.2.1]octan-3-yl)-8-fluoro-2-(((2R,7aS)-2-fluorotetrahydro-1H-pyrrolizin-7a(5H)-yl-5,5-d2)methoxy-d2)pyrido[4,3-d]pyrimidin-7-yl)-5-ethylnaphthalen-2-ol] | < 0.002 nM |
| C[C@H]1C[C@H]1c1ccccc1-c1ncc2c(N3C[C@H]4CC[C@@H](C3)N4)nc(OCC34CCCN3CCC4)nc2c1F [Example 287, 4-((1R,5S)-3,8-diazabicyclo[3.2.1]octan-3-yl)-8-fluoro-2-((hexahydro-1H-pyrrolizin-7a-yl)methoxy)-7-(2-((1R,2S)-2-methylcyclopropyl)phenyl)pyrido[4,3-d]pyrimidine] | 90.7 nM |
| CC(C)c1c(Cl)cccc1-c1ncc2c(N3C[C@H]4CC[C@@H](C3)N4)nc(OCC34CCCN3CCC4)nc2c1F [Example 298, 4-((1R,5S)-3,8-diazabicyclo[3.2.1]octan-3-yl)-7-(3-chloro-2-isopropylphenyl)-8-fluoro-2-((hexahydro-1H-pyrrolizin-7a-yl)methoxy)pyrido[4,3-d]pyrimidine] | 8.3 nM |
| Fc1c(-c2ccccc2C2CC2)ncc2c(N3C[C@H]4CC[C@@H](C3)N4)nc(OC[C@@]34CCCN3C[C@H](F)C4)nc12 [Example 448, 4-((1R,5S)-3,8-diazabicyclo[3.2.1]octan-3-yl)-7-(2-cyclopropylphenyl)-8-fluoro-2-(((2R,7aS)-2-fluorohexahydro-1H-pyrrolizin-7a-yl)methoxy)pyrido[4,3-d]pyrimidine] | 130 nM |
| CNC(=O)O[C@@H]1CN2CCC[C@]2(COc2nc(N3C[C@H]4CC[C@@H](C3)N4)c3cnc(-c4cccc5cccc(Cl)c45)c(F)c3n2)C1 [Example 435, (2S,7aR)-7a-(((4-((1R,5S)-3,8-diazabicyclo[3.2.1]octan-3-yl)-7-(8-chloronaphthalen-1-yl)-8-fluoropyrido[4,3-d]pyrimidin-2-yl)oxy)methyl)hexahydro-1H-pyrrolizin-2-yl methylcarbamate] | 28.2 nM |
| O=C(CCl)N1CCC(Oc2nc(N3C[C@H]4CC[C@@H](C3)N4)c3cnc(-c4cccc5cccc(Cl)c45)c(F)c3n2)CC1 [Example 163, 1-(4-((4-((1R,5S)-3,8-diazabicyclo[3.2.1]octan-3-yl)-7-(8-chloronaphthalen-1-yl)-8-fluoropyrido[4,3-d]pyrimidin-2-yl)oxy)piperidin-1-yl)-2-chloroethan-1-one bis(2,2,2-trifluoroacetate)] | 5550 nM |
| CCCc1cccc2cccc(-c3ncc4c(N5C[C@H]6CC[C@@H](C5)N6)nc(OCC56CCCN5CCC6)nc4c3F)c12 [Example 254, 4-((1R,5S)-3,8-diazabicyclo[3.2.1]octan-3-yl)-8-fluoro-2-((hexahydro-1H-pyrrolizin-7a-yl)methoxy)-7-(8-propylnaphthalen-1-yl)pyrido[4,3-d]pyrimidine] | 6.1 nM |
| Fc1c(-c2cccc3cccc(OC(F)(F)F)c23)ncc2c(N3C[C@H]4CC[C@@H](C3)N4)nc(OCC34CCCN3CCC4)nc12 [Example 345, 4-((1R,5S)-3,8-diazabicyclo[3.2.1]octan-3-yl)-8-fluoro-2-((tetrahydro-1H-pyrrolizin-7a(5H)-yl)methoxy)-7-(8-(trifluoromethoxy)naphthalen-1-yl)pyrido[4,3-d]pyrimidine] | 10.6 nM |

Reference: US20230279025A1, “KRAS G12D INHIBITORS” (Mirati Therapeutics, Inc., priority 2020, published 2023)
